Results on five molecules are retold here after patent US10670605B2, “Cysteine reactive probes and uses thereof” (The Scripps Research Institute, priority 2015, dated 2020).

Holding throughout (test): Competitive isoTOP-ABPP in situ (fragment-treated cells)
Common to all, as to assay type: cell-based

In test [1] the target is T1, cysteines in MDA-MB-231 and Ramos cells (Homo sapiens, UniProt Q96RN5).
T1 sequence (Q96RN5 1-788): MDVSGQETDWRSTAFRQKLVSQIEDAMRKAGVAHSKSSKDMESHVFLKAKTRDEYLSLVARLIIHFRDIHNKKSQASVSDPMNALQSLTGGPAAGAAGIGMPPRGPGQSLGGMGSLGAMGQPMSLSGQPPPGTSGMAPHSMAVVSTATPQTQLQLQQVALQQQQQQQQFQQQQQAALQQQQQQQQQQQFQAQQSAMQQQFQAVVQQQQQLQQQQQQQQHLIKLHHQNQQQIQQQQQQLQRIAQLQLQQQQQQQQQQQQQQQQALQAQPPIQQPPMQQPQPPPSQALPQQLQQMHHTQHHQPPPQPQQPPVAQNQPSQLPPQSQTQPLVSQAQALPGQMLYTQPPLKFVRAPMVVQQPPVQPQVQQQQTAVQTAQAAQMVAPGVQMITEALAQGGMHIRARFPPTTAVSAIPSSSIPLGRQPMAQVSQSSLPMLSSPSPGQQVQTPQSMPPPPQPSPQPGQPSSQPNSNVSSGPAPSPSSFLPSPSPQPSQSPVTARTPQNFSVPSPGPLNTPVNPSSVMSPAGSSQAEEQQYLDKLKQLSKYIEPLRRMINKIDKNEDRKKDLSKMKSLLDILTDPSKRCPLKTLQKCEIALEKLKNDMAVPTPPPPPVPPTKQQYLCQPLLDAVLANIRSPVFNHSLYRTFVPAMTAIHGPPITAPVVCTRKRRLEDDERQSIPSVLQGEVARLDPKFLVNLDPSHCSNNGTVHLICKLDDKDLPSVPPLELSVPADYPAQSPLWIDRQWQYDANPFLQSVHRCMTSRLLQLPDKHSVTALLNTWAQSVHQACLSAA
The following applies: for isoTOP-ABPP ratio Q96RN5_C618: 200 μM, insitu.

The target in test [2] is cysteines in MDA-MB-231 and Ramos cells (Homo sapiens, UniProt Q8TAQ2). The following applies: for isoTOP-ABPP ratio Q8TAQ2_C145: 200 μM, insitu.
Test [3] has as its target T2, cysteines in MDA-MB-231 and Ramos cells (Homo sapiens, UniProt Q9NQW6).
T2 sequence (Q9NQW6 1-1124): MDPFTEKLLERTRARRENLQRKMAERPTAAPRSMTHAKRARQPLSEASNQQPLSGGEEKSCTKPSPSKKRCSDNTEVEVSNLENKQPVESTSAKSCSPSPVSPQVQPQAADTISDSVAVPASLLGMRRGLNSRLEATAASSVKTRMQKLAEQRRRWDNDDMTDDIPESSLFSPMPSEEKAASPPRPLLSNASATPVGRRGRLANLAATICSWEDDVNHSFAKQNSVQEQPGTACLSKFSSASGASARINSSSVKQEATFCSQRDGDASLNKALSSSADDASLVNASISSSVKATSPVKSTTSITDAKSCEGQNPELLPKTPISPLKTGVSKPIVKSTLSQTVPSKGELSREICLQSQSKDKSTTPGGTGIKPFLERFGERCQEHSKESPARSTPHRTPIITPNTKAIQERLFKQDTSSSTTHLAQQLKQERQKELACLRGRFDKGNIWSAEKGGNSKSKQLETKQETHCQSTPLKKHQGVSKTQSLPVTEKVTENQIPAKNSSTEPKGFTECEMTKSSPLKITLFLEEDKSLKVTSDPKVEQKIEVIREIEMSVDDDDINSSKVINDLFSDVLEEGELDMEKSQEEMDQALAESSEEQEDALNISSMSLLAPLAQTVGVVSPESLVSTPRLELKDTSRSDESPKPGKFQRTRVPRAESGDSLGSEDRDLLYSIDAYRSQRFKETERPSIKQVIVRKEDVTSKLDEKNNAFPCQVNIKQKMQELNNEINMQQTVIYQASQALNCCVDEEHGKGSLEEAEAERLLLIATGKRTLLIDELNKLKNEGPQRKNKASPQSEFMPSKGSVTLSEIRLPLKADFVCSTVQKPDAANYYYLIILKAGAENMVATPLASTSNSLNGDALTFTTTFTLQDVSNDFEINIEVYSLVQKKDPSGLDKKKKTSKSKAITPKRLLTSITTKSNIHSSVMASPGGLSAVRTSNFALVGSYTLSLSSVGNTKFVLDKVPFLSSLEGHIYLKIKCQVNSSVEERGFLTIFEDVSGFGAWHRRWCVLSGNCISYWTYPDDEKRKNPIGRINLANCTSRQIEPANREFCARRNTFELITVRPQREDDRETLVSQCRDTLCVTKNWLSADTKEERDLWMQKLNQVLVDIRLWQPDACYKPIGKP
Conditions: for isoTOP-ABPP ratio Q9NQW6_C712: 200 μM, insitu, 231.

Test [4] deals with T3, cysteines in MDA-MB-231 and Ramos cells (Homo sapiens, UniProt Q9Y3D0).
T3 sequence (Q9Y3D0 1-163): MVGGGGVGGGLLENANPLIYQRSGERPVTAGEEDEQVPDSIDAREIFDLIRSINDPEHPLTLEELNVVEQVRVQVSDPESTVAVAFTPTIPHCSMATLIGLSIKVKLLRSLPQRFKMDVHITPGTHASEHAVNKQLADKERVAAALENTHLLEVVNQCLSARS
Conditions: for isoTOP-ABPP ratio Q9Y3D0_C93: 200 μM, insitu.

For test [5], the target named is cysteines in MDA-MB-231 and Ramos cells (Homo sapiens, UniProt Q9BUH6). Conditions: for isoTOP-ABPP ratio Q9BUH6_C180: 200 μM, insitu, 231.
The target in test [6] is T4, cysteines in MDA-MB-231 and Ramos cells (Homo sapiens, UniProt Q96AB3).
T4 sequence (Q96AB3 1-205): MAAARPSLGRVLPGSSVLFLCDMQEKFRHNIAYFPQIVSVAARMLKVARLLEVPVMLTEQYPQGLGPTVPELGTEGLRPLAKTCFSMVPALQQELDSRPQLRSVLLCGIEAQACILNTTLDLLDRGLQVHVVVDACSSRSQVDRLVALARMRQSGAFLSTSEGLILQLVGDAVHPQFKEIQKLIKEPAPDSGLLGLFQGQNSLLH
Conditions: for isoTOP-ABPP ratio Q96AB3_C114: 200 μM, insitu, 231.

Test [7] concerns the target cysteines in MDA-MB-231 and Ramos cells (Homo sapiens, UniProt O60610). Conditions: for isoTOP-ABPP ratio O60610_C1227: 200 μM, insitu.
The target of test [8] is T5, cysteines in MDA-MB-231 and Ramos cells (Homo sapiens, UniProt O95571).
T5 sequence (O95571 8-254): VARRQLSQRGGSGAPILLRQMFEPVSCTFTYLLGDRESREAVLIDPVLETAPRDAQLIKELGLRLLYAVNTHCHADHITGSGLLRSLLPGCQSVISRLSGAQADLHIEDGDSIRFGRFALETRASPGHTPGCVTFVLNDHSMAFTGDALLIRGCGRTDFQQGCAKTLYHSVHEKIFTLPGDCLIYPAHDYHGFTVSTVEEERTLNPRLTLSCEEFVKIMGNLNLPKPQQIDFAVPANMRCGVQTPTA
Conditions: for isoTOP-ABPP ratio O95571_C170: 200 μM, insitu.

Test [9] has as its target cysteines in MDA-MB-231 and Ramos cells (Homo sapiens, UniProt Q9ULV4). The following applies: for isoTOP-ABPP ratio Q9ULV4_C420: 200 μM, insitu.

cysteines in MDA-MB-231 and Ramos cells (Homo sapiens, UniProt Q9ULV4), sequence (Q9ULV4 whole entry): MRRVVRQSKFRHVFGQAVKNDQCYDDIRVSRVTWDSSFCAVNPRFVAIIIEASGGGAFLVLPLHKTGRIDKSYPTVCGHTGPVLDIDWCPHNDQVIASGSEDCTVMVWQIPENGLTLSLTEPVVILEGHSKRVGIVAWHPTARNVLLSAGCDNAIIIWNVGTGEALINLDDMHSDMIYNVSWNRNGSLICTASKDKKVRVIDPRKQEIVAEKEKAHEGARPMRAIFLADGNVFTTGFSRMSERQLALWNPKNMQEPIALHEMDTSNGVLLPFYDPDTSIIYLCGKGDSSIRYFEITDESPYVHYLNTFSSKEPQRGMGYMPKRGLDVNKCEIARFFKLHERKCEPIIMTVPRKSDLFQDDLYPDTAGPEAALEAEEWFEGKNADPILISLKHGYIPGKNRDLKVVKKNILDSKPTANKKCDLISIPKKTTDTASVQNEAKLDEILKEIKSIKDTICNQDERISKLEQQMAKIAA
cysteines in MDA-MB-231 and Ramos cells (Homo sapiens, UniProt O60610), sequence (O60610 whole entry): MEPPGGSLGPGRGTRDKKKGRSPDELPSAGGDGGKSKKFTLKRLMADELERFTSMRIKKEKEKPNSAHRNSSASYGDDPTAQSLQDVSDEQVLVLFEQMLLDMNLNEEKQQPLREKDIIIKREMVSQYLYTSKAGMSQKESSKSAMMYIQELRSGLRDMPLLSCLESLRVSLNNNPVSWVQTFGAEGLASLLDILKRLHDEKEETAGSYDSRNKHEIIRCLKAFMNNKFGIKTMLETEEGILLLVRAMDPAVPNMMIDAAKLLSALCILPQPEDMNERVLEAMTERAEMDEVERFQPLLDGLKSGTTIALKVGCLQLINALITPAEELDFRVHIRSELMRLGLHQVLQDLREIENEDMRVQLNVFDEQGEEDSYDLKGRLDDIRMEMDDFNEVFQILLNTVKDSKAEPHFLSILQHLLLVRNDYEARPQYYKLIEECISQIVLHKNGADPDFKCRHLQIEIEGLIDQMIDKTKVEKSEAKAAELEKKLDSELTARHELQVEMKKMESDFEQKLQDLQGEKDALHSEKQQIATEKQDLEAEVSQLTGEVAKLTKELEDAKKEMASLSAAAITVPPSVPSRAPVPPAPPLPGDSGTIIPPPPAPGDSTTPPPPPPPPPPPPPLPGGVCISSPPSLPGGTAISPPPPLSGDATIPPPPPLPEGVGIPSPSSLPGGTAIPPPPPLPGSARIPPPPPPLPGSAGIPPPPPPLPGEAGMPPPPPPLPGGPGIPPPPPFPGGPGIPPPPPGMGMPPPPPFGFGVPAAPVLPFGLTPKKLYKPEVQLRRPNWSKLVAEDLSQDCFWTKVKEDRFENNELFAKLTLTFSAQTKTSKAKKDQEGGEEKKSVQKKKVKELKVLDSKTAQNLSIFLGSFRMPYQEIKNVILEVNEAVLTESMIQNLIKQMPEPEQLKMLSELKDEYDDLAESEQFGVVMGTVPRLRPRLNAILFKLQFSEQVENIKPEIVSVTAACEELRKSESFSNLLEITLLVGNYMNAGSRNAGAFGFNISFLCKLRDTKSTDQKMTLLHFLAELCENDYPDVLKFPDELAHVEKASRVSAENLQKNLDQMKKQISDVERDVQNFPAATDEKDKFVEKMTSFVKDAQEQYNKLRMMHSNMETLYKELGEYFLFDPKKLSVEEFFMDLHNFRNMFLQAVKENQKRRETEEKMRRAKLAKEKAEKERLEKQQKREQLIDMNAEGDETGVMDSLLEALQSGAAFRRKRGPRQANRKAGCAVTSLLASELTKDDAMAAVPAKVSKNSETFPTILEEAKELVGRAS
cysteines in MDA-MB-231 and Ramos cells (Homo sapiens, UniProt Q8TAQ2), sequence (Q8TAQ2 whole entry): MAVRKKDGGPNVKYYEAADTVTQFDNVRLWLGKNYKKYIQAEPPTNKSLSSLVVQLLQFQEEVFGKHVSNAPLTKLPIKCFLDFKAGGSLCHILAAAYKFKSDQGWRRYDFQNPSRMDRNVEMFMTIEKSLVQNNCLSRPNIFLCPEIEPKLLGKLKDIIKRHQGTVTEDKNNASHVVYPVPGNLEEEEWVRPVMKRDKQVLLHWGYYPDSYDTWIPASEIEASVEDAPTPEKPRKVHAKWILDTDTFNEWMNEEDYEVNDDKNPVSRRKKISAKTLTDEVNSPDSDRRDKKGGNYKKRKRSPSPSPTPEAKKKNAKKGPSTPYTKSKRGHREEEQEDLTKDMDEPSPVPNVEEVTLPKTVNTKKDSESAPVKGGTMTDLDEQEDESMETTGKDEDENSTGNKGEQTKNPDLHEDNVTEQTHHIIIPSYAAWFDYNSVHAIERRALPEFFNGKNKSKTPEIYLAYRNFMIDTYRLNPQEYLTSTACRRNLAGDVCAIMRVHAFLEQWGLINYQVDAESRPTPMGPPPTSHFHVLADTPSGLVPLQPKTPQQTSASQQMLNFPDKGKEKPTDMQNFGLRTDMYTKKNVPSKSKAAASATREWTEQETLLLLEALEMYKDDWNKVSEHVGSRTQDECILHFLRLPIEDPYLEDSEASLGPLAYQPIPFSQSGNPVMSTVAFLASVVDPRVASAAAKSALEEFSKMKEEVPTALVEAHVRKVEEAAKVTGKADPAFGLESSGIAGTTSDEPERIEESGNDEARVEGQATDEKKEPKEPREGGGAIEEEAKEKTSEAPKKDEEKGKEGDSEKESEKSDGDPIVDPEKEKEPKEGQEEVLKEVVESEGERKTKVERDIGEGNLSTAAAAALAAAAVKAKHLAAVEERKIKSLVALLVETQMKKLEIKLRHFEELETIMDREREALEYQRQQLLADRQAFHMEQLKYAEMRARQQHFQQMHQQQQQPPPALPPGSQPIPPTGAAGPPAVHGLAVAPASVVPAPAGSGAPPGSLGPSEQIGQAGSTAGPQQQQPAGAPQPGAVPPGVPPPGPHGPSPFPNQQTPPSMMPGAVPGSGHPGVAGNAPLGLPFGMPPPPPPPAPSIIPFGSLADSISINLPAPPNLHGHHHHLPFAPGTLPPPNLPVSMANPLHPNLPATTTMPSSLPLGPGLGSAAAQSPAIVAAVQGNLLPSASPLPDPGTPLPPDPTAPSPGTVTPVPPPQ
cysteines in MDA-MB-231 and Ramos cells (Homo sapiens, UniProt Q9BUH6), sequence (Q9BUH6 whole entry): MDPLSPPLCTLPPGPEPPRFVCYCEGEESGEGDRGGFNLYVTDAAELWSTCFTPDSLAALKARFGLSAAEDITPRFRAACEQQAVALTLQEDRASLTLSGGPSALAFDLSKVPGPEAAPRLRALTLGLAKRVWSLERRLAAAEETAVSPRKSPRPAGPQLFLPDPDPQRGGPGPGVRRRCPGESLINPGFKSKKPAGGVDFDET

For `COc1ccc(C2CC(c3cccs3)=NN2C(=O)CCl)cc1` (stereo not drawn) [compound 4], in [1] (100 μM in situ 231), the “isoTOP-ABPP reactivity O96RN5_C618 MED15” value is recorded as 4.5. In addition, in [2] (100 μM in situ 231), the “isoTOP-ABPP reactivity Q8TAQ2_C145 SMARCC2” value was 3.1. In test [3] (100 μM in situ 231), the “isoTOP-ABPP reactivity Q9NQW6_C712 ANLN” value turned out to be 4.1. The “isoTOP-ABPP reactivity Q9Y3D0_C93 FAM96B” value in test [4] (100 μM in situ 231) worked out at 20.0. In addition, the “isoTOP-ABPP reactivity Q9BUH6_C180 C9orf142” value in test [5] (100 μM in situ 231) was determined as 1.2. In addition, in test [6] (100 μM in situ 231), the “isoTOP-ABPP reactivity Q96AB3_C114 ISOC2” value amounted to 0.8. Moreover, in test [7] (100 μM in situ 231), the “isoTOP-ABPP reactivity O60610_C1227 DIAPH1” value is 1.6. Further, in test [8] (100 μM in situ 231), the “isoTOP-ABPP reactivity O95571_C170 ETHE1” value is 2.3. For the same molecule, the “isoTOP-ABPP reactivity Q9ULV4_C420 CORO1C” value in [9] (100 μM in situ 231) stood at 1.3.
Take `CC1CCc2ccccc2N1C(=O)CCl` (stereo not drawn) [compound 45]: the “isoTOP-ABPP ratio Q96RN5_C618” value in test [1] (231) was 20.0. Moreover, in test [2] (231), the “isoTOP-ABPP ratio Q8TAQ2_C145” value is listed as 2.9. Also, the “isoTOP-ABPP ratio Q9NQW6_C712” value in test [3] was found to be 5.9. Besides, in test [4] (231), the “isoTOP-ABPP ratio Q9Y3D0_C93” value is recorded as 20.0. For the same molecule, in test [5], the “isoTOP-ABPP ratio Q9BUH6_C180” value is recorded as 5.5. Moreover, the “isoTOP-ABPP ratio Q96AB3_C114” value in test [6] is given as 3.1. Moreover, the “isoTOP-ABPP ratio O60610_C1227” value in test [7] (231) is 3.0. In addition, in [8] (231), the “isoTOP-ABPP ratio O95571_C170” value was 3.1. The “isoTOP-ABPP ratio Q9ULV4_C420” value in test [9] (231) worked out at 3.2.
Consider `O=C(CCl)N1CCN(S(=O)(=O)c2ccccc2F)CC1` [compound 10], for which the “isoTOP-ABPP ratio Q8TAQ2_C145” value in test [2] (ramos) stood at 20.0. In addition, the “isoTOP-ABPP ratio Q9NQW6_C712” value in [3] came out at 11.2. Besides, the “isoTOP-ABPP ratio Q9Y3D0_C93” value in test [4] (231) came out at 2.1. Also, the “isoTOP-ABPP ratio Q9BUH6_C180” value in test [5] was 3.8. Moreover, in [6], the “isoTOP-ABPP ratio Q96AB3_C114” value is recorded as 20.0. The “isoTOP-ABPP ratio O60610_C1227” value in test [7] (231) was 1.5; in test [7] (ramos) it was 1.4. The “isoTOP-ABPP ratio O95571_C170” value in test [8] (231) is recorded as 9.0. In addition, the “isoTOP-ABPP ratio Q9ULV4_C420” value in [9] (231) was 3.4.
As to `O=C(CCl)NCCc1c[nH]c2ccccc12` [compound 13], the “isoTOP-ABPP ratio Q96RN5_C618” value in [1] (231) worked out at 1.0; in test [1] (ramos), 1.4. Besides, the “isoTOP-ABPP ratio Q8TAQ2_C145” value in test [2] (231) was 1.1. For the same molecule, in test [3], the “isoTOP-ABPP ratio Q9NQW6_C712” value is given as 1.3. For the same molecule, the “isoTOP-ABPP ratio Q9Y3D0_C93” value in [4] (ramos) worked out at 1.4. In addition, in test [5], the “isoTOP-ABPP ratio Q9BUH6_C180” value was 1.1. Further, the “isoTOP-ABPP ratio Q96AB3_C114” value in [6] is 2.4. The “isoTOP-ABPP ratio O60610_C1227” value in [7] (231) is recorded as 0.7; in [7] (ramos), 0.9. The “isoTOP-ABPP ratio O95571_C170” value in test [8] (231) is 1.2; in test [8] (ramos), 1.9. Besides, the “isoTOP-ABPP ratio Q9ULV4_C420” value in test [9] (231) and in test [9] (ramos) was 1.1 each time.
Consider `Cc1ccc(C=C(C#N)C(=O)NCCN2CCOCC2)cc1` [compound 41], for which the “isoTOP-ABPP ratio Q8TAQ2_C145” value in test [2] (231) worked out at 1.2. Besides, in test [3], the “isoTOP-ABPP ratio Q9NQW6_C712” value is reported as 0.7. Also, the “isoTOP-ABPP ratio Q9Y3D0_C93” value in [4] (231) turned out to be 0.6. Further, in test [5], the “isoTOP-ABPP ratio Q9BUH6_C180” value is recorded as 0.6. In [6], the “isoTOP-ABPP ratio Q96AB3_C114” value was 0.7. Moreover, the “isoTOP-ABPP ratio O60610_C1227” value in test [7] (231) was found to be 0.6. Moreover, the “isoTOP-ABPP ratio O95571_C170” value in test [8] (231) is reported as 1.1. Besides, in test [9] (231), the “isoTOP-ABPP ratio Q9ULV4_C420” value is recorded as 0.8.
